Results on 60 compounds are retold here after the RepoRT retention time repository.

Counter-ions that a name gives are not always drawn.

This data set in a line: RP, Waters ACQUITY UPLC HSS T3, 150 × 2.1 mm, 1.8 µm, 45 °C, 0.6 mL/min, estimated dead time 0.55 min; A: water + 0.1% formic acid, pH 3; B: acetonitrile + 0.1% formic acid, pH 3; gradient (min/%B) 0/1 0.1/1 10/55 10.15/65 10.30/75 10.45/85 10.60/95 10.70/100 11/100 11.55/100 11.65/1 11.70/1 11.80/1 11.90/1 12/1 12.10/1 12.15/1 12.65/1. The following applies: stereoisomer not certain.
Regarding `Nc1ncnc2c1ncn2C1OC2COP(=O)(O)OC2C1O` (stereo not given) [Adenosine 3',5'-cyclic monophosphate], the LC retention time is 1.62 min.
For `O=C(O)CCCCC(=O)O` [Adipic acid] the value was 2.59 min; for `O=C(O)CCCCCCCC(=O)O` [Azelaic acid], 5.48 min; for `CC(CCC(=O)O)C1CCC2C3C(O)CC4CC(O)CCC4(C)C3CC(O)C12C` (stereo not given) [Cholic acid], 9.75 min.
For `O=C(O)C=C(CC(=O)O)C(=O)O` [Cis-aconitic acid], the LC retention time was 1.3 min.
For `CC(=CC(=O)O)C(=O)O` [Citraconic acid] the value was 1.73 min; for `O=C(O)CC(O)(CC(=O)O)C(=O)O` [Citric acid], 1.12 min; for `CC12CCC3C(CC=C4CC(OS(=O)(=O)O)CCC43C)C1CCC2=O` (stereo not given) [Dehydroepiandrosterone sulfate], 7.92 min.
For the compound `CC12CCC3C(CC=C4CC(OC5OC(C(=O)O)C(O)C(O)C5O)CCC43C)C1CCC2=O` (stereo not given) [Dehydroisoandrosterone 3-glucuronide], the LC retention time was 7.43 min.
Then `CC(CCC(=O)O)C1CCC2C3CCC4CC(O)CCC4(C)C3CC(O)C12C` (stereo not given) [Deoxycholic acid], with 10.9 min; and `NCCc1ccc(O)c(OS(=O)(=O)O)c1` [Dopamine 3-O-sulfate], with 1.56 min.
Then `NCCc1ccc(OS(=O)(=O)O)c(O)c1` [Dopamine 4-O-sulfate], with 1.49 min; and `O=C(O)c1cc(O)c(O)c(O)c1` [Gallic acid], with 1.72 min.
For `O=C(O)CCCC(=O)O` [Glutaric acid] the value was 1.86 min; for `CC(CCC(=O)NCC(=O)O)C1CCC2C3C(O)CC4CC(O)CCC4(C)C3CC(O)C12C` (stereo not given) [Glycocholic acid], 8.4 min; for `CC(CCC(=O)NCC(=O)O)C1CCC2C3CCC4CC(OS(=O)(=O)O)CCC4(C)C3CC(O)C12C` (stereo not given) [Glycodeoxycholic acid-3-sulfate], 8.94 min.
On to `CC(CCC(=O)NCC(=O)O)C1CCC2C3CCC4CC(O)CCC4(C)C3CC(O)C12C` (stereo not given) [Glycodeoxycholic acid], for which the LC retention time is 10.1 min.
`CC(CCC(=O)NCC(=O)O)C1CCC2C3CCC4CC(OS(=O)(=O)O)CCC4(C)C3CCC12C` (stereo not given) [Glycolithocholic acid-3-sulfate]: the LC retention time is 10.2 min.
For `CC(CCC(=O)NCC(=O)O)C1CCC2C3C(O)CC4CC(O)CCC4(C)C3CCC12C` (stereo not given) [Glycoursodeoxycholic acid] the value was 8.4 min; for `Nc1nc2c(ncn2C2OC(CO)C(O)C2O)c(=O)[nH]1` (stereo not given) [Guanosine], 1.43 min.
With `COc1cc(CC(=O)O)ccc1O` [Homovanillic acid], the LC retention time is 3.8 min.
For `O=c1[nH]cnc2nc[nH]c12` [Hypoxanthine] the value was 1.2 min.
`CC(C)Cc1ccc(C(C)C(=O)OC2OC(C(=O)O)C(O)C(O)C2O)cc1` (stereo not given) [Ibuprofen acyl glucuronide]: the LC retention time is 8.62 min.
Then `O=C(O)C(O)Cc1c[nH]c2ccccc12` (stereo not given) [Indolelactic acid], with 4.86 min; and `O=C(O)C1OC(Oc2c[nH]c3ccccc23)C(O)C(O)C1O` (stereo not given) [Indoxyl glucuronide], with 3.39 min.
Turning to `O=S(=O)(O)Oc1c[nH]c2ccccc12` [Indoxyl sulfate], the LC retention time is 3.4 min.
Then `O=c1[nH]cnc2c1ncn2C1OC(CO)C(O)C1O` (stereo not given) [Inosine], with 1.61 min.
Then `CC(C)C(=O)NCC(=O)O` [Isobutyrylglycine], with 2.07 min.
Then `O=C(O)CC(C(=O)O)C(O)C(=O)O` (stereo not given) [Isocitric acid], with 0.77 min; and `CC(C)CC(=O)C(=O)O` [Ketoleucine], with 3.52 min; and `O=C1O[C@H]([C@@H](O)CO)C(O)=C1OS(=O)(=O)O` [L-Ascorbic acid 2-sulfate], with 0.71 min.
Consider `O=C(O)CC(O)C(=O)O` (stereo not given) [Malic acid], for which the LC retention time was 0.752 min.
`CC(CC(=O)O)C(=O)O` (stereo not given) [Methylsuccinic acid]: the LC retention time is 2.19 min.
Then `CC(=O)NCCC(=O)NC(Cc1cnc[nH]1)C(=O)O` [N-Acetyl-L-carnosine], with 0.92 min.
In the case of `CC(=O)NC(CC(=O)O)C(=O)O` (stereo not given) [N-Acetylaspartic acid], the LC retention time is 1 min.
Then `CC(=O)NC(CCC(N)=O)C(=O)O` (stereo not given) [N-Acetylglutamine], with 0.978 min; and `CCC(C)C(NC(C)=O)C(=O)O` (stereo not given) [N-Acetylisoleucine], with 4.03 min.
With `CC(=O)NC(Cc1ccccc1)C(=O)O` (stereo not given) [N-Acetylphenylalanine], the LC retention time was 4.66 min.
Then `CC(=O)NC(Cc1c[nH]c2ccccc12)C(=O)O` (stereo not given) [N-Acetyltryptophan], with 4.96 min.
Then `CC(=O)NC(Cc1ccc(O)cc1)C(=O)O` (stereo not given) [N-Acetyltyrosine], with 2.97 min.
For `CC(C)CC(=O)NCC(=O)O` [N-Isovaleroylglycine] the value was 3.07 min; for `CC(=O)NC(CCC(=O)O)C(=O)O` (stereo not given) [N-acetylglutamic acid], 1.35 min.
In the case of `CC(=O)NC(CCCN=C(N)N)C(=O)O` [Na-Acetyl-L-arginine], the LC retention time is 0.91 min.
In the case of `NC(Cc1ccc(OS(=O)(=O)O)cc1)C(=O)O` (stereo not given) [O-Sulfotyrosine], the LC retention time is 1.5 min.
For `O=C(O)c1cc(=O)[nH]c(=O)[nH]1` [Orotic acid] the value was 0.81 min; for `CC(C)(CO)C(O)C(=O)NCCC(=O)O` (stereo not given) [Pantothenic acid], 2.31 min.
Consider `O=S(=O)(O)Oc1ccccc1` [Phenol sulfate], for which the LC retention time is 3.01 min.
For `O=C(O)CNC(=O)Cc1ccccc1` [Phenylacetylglycine] the value was 4.01 min; for `NC(Cc1ccccc1)C(=O)O` (stereo not given) [Phenylalanine], 2.05 min.
In the case of `O=C(O)C(O)Cc1ccccc1` (stereo not given) [Phenyllactic acid], the LC retention time was 4.51 min.
Then `O=C(O)CCCCCC(=O)O` [Pimelic acid], with 3.46 min.
Then `CC(O)C1CCC2C3CCC4CC(OC5OC(C(=O)O)C(O)C(O)C5O)CCC4(C)C3CCC12C` (stereo not given) [Pregnanediol-3-glucuronide], with 9.23 min.
For `CC(=O)C1CCC2C3CC=C4CC(OS(=O)(=O)O)CCC4(C)C3CCC12C` (stereo not given) [Pregnenolone sulfate] the value was 9.81 min; for `O=C1CCC(C(=O)O)N1` (stereo not given) [Pyroglutamic acid], 1.25 min.
Turning to `NC(CCCCn1c(C=O)ccc1CO)C(=O)O` (stereo not given) [Pyrraline], the LC retention time was 2.49 min.
Turning to `Cc1cc2nc3c(=O)[nH]c(=O)nc-3n(CC(O)C(O)C(O)CO)c2cc1C` (stereo not given) [Riboflavin], the LC retention time is 3.82 min.
Then `O=C1NS(=O)(=O)c2ccccc21` [Saccharin], with 2.7 min; and `O=C(O)c1ccccc1O` [Salicylic acid], with 5.48 min.
Then `O=C(O)CNC(=O)c1ccccc1O` [Salicyluric acid], with 4.39 min.
Then `O=C(O)CCCCCCC(=O)O` [Suberic acid], with 4.46 min.
